From patent US20220325233A1, “MEDIUM SUPPLEMENT FOR HIGH-YIELD INDUSTRIAL CULTURE OF FASTIDIOUS ANAEROBES AND MEDIUM COMPOSITION CONTAINING THE SAME” (priority 2020, published 2022)

Tested on: Akkermansia muciniphila EB-AMDK19 (KCTC 13761BP) strain
Test: Growth (change in optical density, ΔOD600) in anaerobic batch culture
Assay type: cell-based
Conditions: for Growth (ΔOD600): after 72 hours of culture; for Growth (AOD 600): after 48 hours of culture
Protocol: In addition, in the following examples, the concentration of anaerobes (amount of biomass produced) was determined by measuring the optical density of the culture medium at 600 nm using a spectrophotometer during the culture period. ΔOD was calculated as the difference in absorbance between the initial stage of culture and after 48 hours (or 72 hours) of culture.
Based on soy casein digest broth (tryptic soy broth (TSB)), the optimal combination of substrates and components that can replace mucin was investigated.
Next, changes in the optical density (OD600) of the strain were measured, and the results of the measurement are shown in Table 3 below.
In addition, to find the optimal concentration of cobalamin, the strain was cultured while changing the concentrations of cobalamin, and then changes in the optical density (OD600) of the strain were measured.
In order to find the essential components necessary for high-concentration culture of anaerobes and an optimal combination thereof, the Akkermansia muciniphila strain was cultured in media having various combinations of components under the same conditions.
An experiment was performed in the same manner as in Example 1 above, except that the medium shown in Table 2 above were used and the kind of strain cultured was changed as shown in Table 7 below. Specifically, each Akkermansia muciniphila strain was inoculated into the medium at a ratio of 0.1% v/v, and then cultured at 37° C. under anaerobic conditions (90% N2, 5% CO2, and 5% H2) for 24 to 48 hours.

[1] = single vitamin added at 0.1 mg/L
[2] = single vitamin added at 0.2 mg/L

O=C(O)CCCC[C@@H]1SC[C@@H]2NC(=O)N[C@@H]21 [Medium B7]
Growth (ΔOD600) (single vitamin added at 0.02 mg/L): 0.344

Nc1ccc(C(=O)O)cc1 [Medium B10]
Growth (ΔOD600) [1]: 0.335

Cc1ncc(CO)c(CO)c1O [Medium B6]
Growth (ΔOD600) (single vitamin added at 0.5 mg/L): 0.337

CC(C)(CO)[C@@H](O)C(=O)NCCC(=O)O [Medium B5]
Growth (ΔOD600) [1]: 0.347

Cyanocobalamin
Growth (AOD 600) (Cyanocobalamin 0.05 mg/L): 0.563 ± 0.012
Growth (AOD 600) (Cyanocobalamin 0.1 mg/L): 0.576 ± 0.014
Growth (AOD 600) (Cyanocobalamin 0.2 mg/L): 0.577 ± 0.008
Growth (AOD 600) (Cyanocobalamin 0.5 mg/L): 0.575 ± 0.011
Growth (AOD 600) (Cyanocobalamin 1 mg/L): 0.581 ± 0.003
Growth (AOD 600) (Cyanocobalamin 5 mg/L): 0.571 ± 0.007
optimal concentration in the medium (from Table 5 concentration series): 0.1 mg/L
Growth (ΔOD600) [1]: 0.575

Cc1ncc(C[n+]2csc(CCO)c2C)c(N)n1 [Medium B1]
Growth (ΔOD600) [2]: 0.352

O=C(O)c1cccnc1 [Medium B3]
Growth (ΔOD600) [2]: 0.342

Cc1cc2nc3c(=O)[nH]c(=O)nc-3n(C[C@H](O)[C@H](O)[C@H](O)CO)c2cc1C [Medium B2]
Growth (ΔOD600) [1]: 0.334

Nc1nc(=O)c2nc(CNc3ccc(C(=O)N[C@@H](CCC(=O)O)C(=O)O)cc3)cnc2[nH]1 [Medium B9]
Growth (ΔOD600) (single vitamin added at 0.05 mg/L): 0.348
